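Five concentrations, 48 hours, 96-well plates. TGI: concentration producing complete growth inhibition.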
Experiments:
Assay in all cases: NCI tumour cell line growth inhibition, 48 h
[1] = test system: 786-0 renal
[2] = test system: SN12C renal
[3] = test system: SNB-75 CNS
[4] = test system: NCI/ADR-RES ovarian
[5] = test system: OVCAR-8 ovarian
[6] = test system: M14 melanoma
[7] = test system: SK-OV-3 ovarian
[8] = test system: MDA-MB-435
[9] = test system: RXF 393 renal
[10] = test system: SK-MEL-5 melanoma
[11] = test system: HOP-62 NSCLC
[12] = test system: MCF7 breast
[13] = test system: MDA-N
[14] = test system: CAKI-1 renal
[15] = test system: SF-539 CNS
[16] = test system: NCI-H226 lung
[17] = test system: SNB-19 CNS
[18] = test system: HOP-92 NSCLC
[19] = test system: NCI-H522 lung
[20] = test system: UO-31 renal
[21] = test system: SR leukemia
[22] = test system: UACC-62 melanoma
[23] = test system: KM12 colon
[24] = test system: A549 NSCLC
[25] = test system: TK-10 renal
[26] = test system: EKVX NSCLC
[27] = test system: NCI-H23 lung
[28] = test system: OVCAR-5 ovarian
[29] = test system: SK-MEL-2 melanoma
[30] = test system: HT29 colon
[31] = test system: DU-145 prostate
[32] = test system: IGROV1 ovarian
[33] = test system: SF-268 CNS
[34] = test system: MOLT-4 leukemia
[35] = test system: HS 578T breast
[36] = test system: T-47D breast
[37] = test system: CCRF-CEM leukemia
[38] = test system: A498 renal
[39] = test system: SF-295 CNS
[40] = test system: HCT-15 colon
[41] = test system: OVCAR-4 ovarian
[42] = test system: COLO 205 colon
[43] = test system: HCC-2998 colon
[44] = test system: SW-620 colon
[45] = test system: BT-549 breast
[46] = test system: LOX IMVI melanoma
[47] = test system: PC-3 prostate
[48] = test system: MALME-3M melanoma
[49] = test system: HCT-116 colon
[50] = test system: U251 CNS
[51] = test system: UACC-257 melanoma
[52] = test system: OVCAR-3 ovarian
[53] = test system: HL-60(TB) leukemia
[54] = test system: MDA-MB-231 breast
[55] = test system: NCI-H460 lung
[56] = test system: KM20L2 colon
[57] = test system: LXFL 529 NSCLC
[58] = test system: DMS 114 small cell lung
[59] = test system: ACHN renal
[60] = test system: M19-MEL melanoma
[61] = test system: DLD-1 colon
[62] = test system: RPMI-8226 leukemia
[63] = test system: K-562 leukemia
[64] = test system: SK-MEL-28 melanoma
[65] = test system: XF 498 CNS
[66] = test system: DMS 273 small cell lung
[67] = test system: HOP-18 NSCLC

SMILES: O=C(/C=C/C=C/c1ccccc1)CCc1ccccc1
- TGI [1]: > 100 µM
- TGI [2]: > 100 µM
- TGI [3]: > 100 µM
- TGI [4]: > 100 µM
- TGI [5]: > 100 µM
- TGI [6]: > 100 µM
- TGI [7]: > 100 µM
- TGI [8]: > 100 µM
- TGI [9]: > 100 µM
- TGI [10]: > 100 µM
- TGI [11]: > 100 µM
- TGI [12]: > 100 µM
- TGI [13]: > 100 µM
- TGI [14]: > 100 µM
- TGI [15]: > 100 µM
- TGI [16]: > 100 µM
- TGI [17]: > 100 µM
- TGI [18]: > 100 µM
- TGI [19]: > 100 µM
- TGI [20]: > 100 µM
- TGI [21]: 63.7 µM
- TGI [22]: > 100 µM
- TGI [23]: > 100 µM
- TGI [24]: > 100 µM
- TGI [25]: > 100 µM
- TGI [26]: > 100 µM
- TGI [27]: > 100 µM
- TGI [28]: > 100 µM
- TGI [29]: > 100 µM
- TGI [30]: > 100 µM
- TGI [31]: > 100 µM
- TGI [32]: > 100 µM
- TGI [33]: > 100 µM
- TGI [34]: 56.1 µM
- TGI [35]: > 100 µM
- TGI [36]: > 100 µM
- TGI [37]: > 100 µM
- TGI [38]: > 100 µM
- TGI [39]: > 100 µM
- TGI [40]: > 100 µM
- TGI [41]: > 100 µM
- TGI [42]: > 100 µM
- TGI [43]: > 100 µM
- TGI [44]: > 100 µM
- TGI [45]: > 100 µM
- TGI [46]: > 100 µM
- TGI [47]: > 100 µM
- TGI [48]: > 100 µM
- TGI [49]: > 100 µM
- TGI [50]: > 100 µM
- TGI [51]: > 100 µM
- TGI [52]: > 100 µM
- TGI [53]: 53 µM
- TGI [54]: > 100 µM

SMILES: CCOc1cc2c(cnc3c4cc(OC)c(OC)cc4ccc23)cc1OC
- TGI [1]: > 100 µM
- TGI [55]: > 100 µM
- TGI [2]: > 100 µM
- TGI [3]: > 100 µM
- TGI [5]: > 100 µM
- TGI [6]: > 100 µM
- TGI [7]: > 100 µM
- TGI [56]: > 100 µM
- TGI [10]: > 100 µM
- TGI [57]: > 100 µM
- TGI [11]: > 100 µM
- TGI [14]: > 100 µM
- TGI [15]: > 100 µM
- TGI [17]: > 100 µM
- TGI [19]: > 100 µM
- TGI [20]: > 100 µM
- TGI [58]: > 100 µM
- TGI [59]: > 100 µM
- TGI [22]: > 100 µM
- TGI [23]: > 100 µM
- TGI [60]: > 100 µM
- TGI [24]: > 100 µM
- TGI [25]: > 100 µM
- TGI [26]: > 100 µM
- TGI [27]: > 100 µM
- TGI [28]: > 100 µM
- TGI [29]: > 100 µM
- TGI [61]: > 100 µM
- TGI [30]: > 100 µM
- TGI [62]: > 100 µM
- TGI [32]: > 100 µM
- TGI [33]: > 100 µM
- TGI [34]: > 100 µM
- TGI [37]: > 100 µM
- TGI [38]: > 100 µM
- TGI [39]: > 100 µM
- TGI [40]: > 100 µM
- TGI [41]: > 100 µM
- TGI [63]: > 100 µM
- TGI [42]: > 100 µM
- TGI [43]: > 100 µM
- TGI [64]: > 100 µM
- TGI [44]: > 100 µM
- TGI [48]: > 100 µM
- TGI [49]: > 100 µM
- TGI [50]: > 100 µM
- TGI [51]: > 100 µM
- TGI [65]: > 100 µM
- TGI [52]: > 100 µM

SMILES: CC(C)=CCC/C(=C\CC/C(=C\CCc1ccoc1)C(=O)O)C(=O)O
- TGI [1]: > 100 µM
- TGI [2]: > 100 µM
- TGI [3]: > 100 µM
- TGI [4]: > 100 µM
- TGI [5]: > 100 µM
- TGI [6]: > 100 µM
- TGI [7]: > 100 µM
- TGI [8]: > 100 µM
- TGI [9]: > 100 µM
- TGI [10]: > 100 µM
- TGI [11]: > 100 µM
- TGI [12]: > 100 µM
- TGI [13]: > 100 µM
- TGI [14]: > 100 µM
- TGI [15]: > 100 µM
- TGI [16]: > 100 µM
- TGI [17]: > 100 µM
- TGI [18]: > 100 µM
- TGI [19]: > 100 µM
- TGI [20]: > 100 µM
- TGI [21]: > 100 µM
- TGI [59]: > 100 µM
- TGI [22]: > 100 µM
- TGI [23]: > 100 µM
- TGI [24]: > 100 µM
- TGI [25]: > 100 µM
- TGI [26]: > 100 µM
- TGI [27]: > 100 µM
- TGI [28]: > 100 µM
- TGI [29]: > 100 µM
- TGI [30]: > 100 µM
- TGI [62]: > 100 µM
- TGI [31]: > 100 µM
- TGI [32]: > 100 µM
- TGI [33]: > 100 µM
- TGI [34]: > 100 µM
- TGI [35]: > 100 µM
- TGI [36]: > 100 µM
- TGI [37]: > 100 µM
- TGI [38]: > 100 µM
- TGI [39]: > 100 µM
- TGI [40]: > 100 µM
- TGI [41]: > 100 µM
- TGI [63]: > 100 µM
- TGI [42]: > 100 µM
- TGI [43]: > 100 µM
- TGI [64]: > 100 µM
- TGI [44]: > 100 µM
- TGI [45]: > 100 µM
- TGI [46]: > 100 µM
- TGI [47]: > 100 µM
- TGI [48]: > 100 µM
- TGI [49]: > 100 µM
- TGI [50]: > 100 µM
- TGI [51]: > 100 µM
- TGI [52]: > 100 µM
- TGI [53]: > 100 µM
- TGI [54]: > 100 µM

SMILES: COc1ccc(C2S/C(=C\c3cc(OC)c(OC)c(OC)c3)C(=O)N2NC(=O)Cc2ccccc2)cc1 (stereo unspecified)
- TGI [1]: > 100 µM
- TGI [55]: > 100 µM
- TGI [2]: > 100 µM
- TGI [3]: > 100 µM
- TGI [5]: > 100 µM
- TGI [6]: > 100 µM
- TGI [7]: > 100 µM
- TGI [9]: > 100 µM
- TGI [10]: > 100 µM
- TGI [57]: > 100 µM
- TGI [11]: > 100 µM
- TGI [14]: > 100 µM
- TGI [15]: > 100 µM
- TGI [16]: > 100 µM
- TGI [18]: > 100 µM
- TGI [19]: > 100 µM
- TGI [20]: > 100 µM
- TGI [21]: > 100 µM
- TGI [58]: > 100 µM
- TGI [59]: > 100 µM
- TGI [22]: > 100 µM
- TGI [23]: > 100 µM
- TGI [60]: > 100 µM
- TGI [24]: > 100 µM
- TGI [25]: > 100 µM
- TGI [27]: > 100 µM
- TGI [28]: > 100 µM
- TGI [29]: > 100 µM
- TGI [61]: > 100 µM
- TGI [66]: > 100 µM
- TGI [30]: > 100 µM
- TGI [62]: > 100 µM
- TGI [32]: > 100 µM
- TGI [33]: > 100 µM
- TGI [34]: > 100 µM
- TGI [37]: > 100 µM
- TGI [39]: > 100 µM
- TGI [40]: > 100 µM
- TGI [41]: > 100 µM
- TGI [63]: > 100 µM
- TGI [42]: > 100 µM
- TGI [64]: > 100 µM
- TGI [44]: > 100 µM
- TGI [67]: > 100 µM
- TGI [46]: > 100 µM
- TGI [48]: > 100 µM
- TGI [49]: > 100 µM
- TGI [50]: > 100 µM
- TGI [51]: > 100 µM
- TGI [53]: > 100 µM
